≈ marks a conversion by molar mass, not a printed value.
Tests used:
Type in all cases: functional
Neisseria gonorrhoeae [1] = experiment: Antibacterial activity against resistant Neisseria gonorrhoeae assessed inhibition of bacterial growth
Enterococcus faecalis [2] = experiment: Antimicrobial activity against Enterococcus faecalis ATCC 29212 assessed as reduction in microbial growth incubated for 16 to 20 hrs by CLSI-protocol based Mueller-Hinton broth assay; details: time 16-20 hrs
Staphylococcus aureus [3] = experiment: Antibacterial activity against methicillin-resistant Staphylococcus aureus ATCC 43300 assessed as reduction in bacterial growth by CLSI protocol based two-fold serial broth microdilution method
Enterococcus faecalis [4] = experiment: Antibacterial activity against […] Enterococcus faecalis ATCC 29212 assessed as reduction in bacterial growth by CLSI protocol based two-fold serial broth microdilution method
Enterococcus faecium [5] = experiment: Antibacterial activity against vancomycin-resistant Enterococcus faecium assessed as reduction in bacterial growth CLSI-based double dilution method
Pseudomonas aeruginosa [6] = experiment: Antibacterial activity against Pseudomonas aeruginosa assessed as inhibition of bacterial growth incubated for 24 hrs by broth microdilution method
Klebsiella pneumoniae [7] = experiment: Antibacterial activity against Klebsiella pneumoniae ATCC 10031 assessed as reduction in microbial growth after 24 hrs by two-fold serial dilution method
Staphylococcus aureus [8] = experiment: Antibiofilm activity against Staphylococcus aureus ATCC 25923 assessed as inhibition of biofilm formation incubated for 24 hrs by crystal violet staining based analysis
Enterococcus faecium [9] = experiment: Antibacterial activity against Enterococcus faecium assessed as reduction in bacterial growth
Neisseria gonorrhoeae [10] = experiment: Antibacterial activity against Neisseria gonorrhoeae ATCC 49226 assessed as reduction in bacterial growth incubated for 20 to 24 hrs by CLSI-based protocol based two-fold serial microdilution method; details: time 20-24 hrs
Enterococcus faecium [11] = experiment: Antibacterial activity against Enterococcus faecium
Staphylococcus aureus [12] = experiment: Antibacterial activity against Staphylococcus aureus ATCC 25923 assessed as reduction in microbial growth after 24 hrs by two-fold serial dilution method
Pseudomonas aeruginosa [13] = experiment: Antibacterial activity against Pseudomonas aeruginosa ATCC 27853 assessed as reduction in bacterial growth by broth microdilution method
Klebsiella pneumoniae [14] = experiment: Antibacterial activity against Klebsiella pneumoniae ATCC 700603 assessed as reduction in bacterial growth by microbroth dilution assay
Staphylococcus aureus [15] = experiment: Antimicrobial activity against methicillin-sensitive Staphylococcus aureus ATCC 29213 assessed as reduction in bacterial growth by CLSI protocol based analysis
Staphylococcus aureus [16] = experiment: Antimicrobial activity against […] Staphylococcus aureus ATCC 25923 assessed as reduction in microbial growth by CLSI protocol based analysis
Helicobacter pylori [17] = experiment: Antibacterial activity against Helicobacter pylori ATCC 43504 assessed as reduction in bacterial growth incubated for 24 hrs by broth micro-dilution method
Pseudomonas aeruginosa [18] = experiment: Antibacterial activity against Pseudomonas aeruginosa PAO1 assessed as bacterial growth inhibition measured after 18 hrs by CLSI protocol based two-fold serial microdilution method
Neisseria gonorrhoeae [19] = experiment: Antibacterial activity against Neisseria gonorrhoeae
Staphylococcus aureus [20] = experiment: Antibacterial activity against methicillin-resistant Staphylococcus aureus ATCC 43300 assessed as reduction in bacterial growth by CLSI protocol based broth micro-dilution method
Helicobacter pylori [21] = experiment: Antibacterial activity against Helicobacter pylori ATCC 700392 assessed as reduction in bacterial growth incubated for 24 hrs by broth micro-dilution method
Pseudomonas aeruginosa [22] = experiment: Antibacterial activity against Pseudomonas aeruginosa ATCC 27853 assessed as bacterial growth inhibition measured after 18 hrs by CLSI protocol based two-fold serial microdilution method
Staphylococcus aureus [23] = experiment: Antimicrobial activity against Staphylococcus aureus ATCC 25923 assessed as reduction in microbial growth after 24 hrs by CLSI based broth microdilution method
Acinetobacter baumannii = experiment: Antibacterial activity against Acinetobacter baumannii BAA-1605 assessed as reduction in bacterial growth
Helicobacter pylori [24] = experiment: Antibacterial activity against Helicobacter pylori assessed as inhibition of bacterial growth by broth micro-dilution assay
Staphylococcus aureus [25] = experiment: Antibacterial activity against vancomycin-resistant Staphylococcus aureus VRS 1 assessed as reduction in bacterial growth
Staphylococcus aureus [26] = experiment: Antimicrobial activity against methicillin-resistant Staphylococcus aureus ATCC 29213 assessed as reduction in microbial growth by CLSI brith micro-dilution method
Staphylococcus aureus [27] = experiment: Antibacterial activity against Staphylococcus aureus RN4220 assessed as inhibition of microbial growth

NC(=O)c1ccccc1O [SALICYLAMIDE]
MIC (Neisseria gonorrhoeae [1]): 8 µg/mL (≈ 58.3 µM)

CC(C)Oc1ccc(/C=N/NC(=N)N/N=C/c2ccc(OC(C)C)cc2)cc1
MIC (Enterococcus faecalis [2]): 1 µg/mL

O=C(O)c1ccccc1Nc1cccc(C(F)(F)F)c1 [FLUFENAMIC ACID]
MIC50 (Neisseria gonorrhoeae [1]): 4 µg/mL (≈ 14.2 µM)

O=C(Nc1ccc([N+](=O)[O-])cc1Cl)c1cc(Cl)ccc1O [NICLOSAMIDE]
MIC (Staphylococcus aureus [3]): 0.06 µg/mL (≈ 0.183 µM)
MIC (Enterococcus faecalis [4]): 0.125 µg/mL (≈ 0.382 µM)
MIC (Enterococcus faecium [5]): 1 µg/mL (≈ 3.06 µM)

NC[C@H]1O[C@H](O[C@H]2[C@H](O)[C@@H](O[C@H]3O[C@H](CO)[C@@H](O)[C@H](N)[C@H]3O)[C@H](N)C[C@@H]2N)[C@H](N)C[C@@H]1O [TOBRAMYCIN]
MIC90 (Pseudomonas aeruginosa [6]): 2.2 µg/mL (≈ 4.71 µM)

Cc1cc(C2CCCCC2)n(O)c(=O)c1 [CICLOPIROX]
MIC (Klebsiella pneumoniae [7]): 5 µg/mL

Cc1c(Cl)cccc1Nc1ccccc1C(=O)O [TOLFENAMIC ACID]
MIC50 (Neisseria gonorrhoeae [1]): 4 µg/mL (≈ 15.3 µM)

O=C(Nc1ccc(C(F)(F)F)cc1)Nc1ccc(C(F)(F)F)cc1
MBEC (Staphylococcus aureus [8]): 0.78 µmol/L
MIC (Enterococcus faecium [9]): 1.6 µM (≈ 0.557 µg/mL)

Oc1c(I)cc(Cl)c2cccnc12 [CLIOQUINOL]
MIC (Neisseria gonorrhoeae [10]): 0.28 µM (≈ 0.0855 µg/mL)

CN[C@H](CC(C)C)C(=O)N[C@H]1C(=O)N[C@@H](CC(N)=O)C(=O)N[C@H]2C(=O)N[C@H]3C(=O)N[C@H](C(=O)N[C@H](C(=O)O)c4cc(O)cc(O)c4-c4cc3ccc4O)[C@H](O)c3ccc(c(Cl)c3)Oc3cc2cc(c3O[C@@H]2O[C@H](CO)[C@@H](O)[C@H](O)[C@H]2O[C@H]2C[C@](C)(N)[C@H](O)[C@H](C)O2)Oc2ccc(cc2Cl)[C@H]1O [VANCOMYCIN]
MIC (Enterococcus faecium [11]): 8 µg/mL (≈ 5.52 µM)

COc1cc(/C=C/C(=O)CC(=O)/C=C/c2ccc(O)c(OC)c2)ccc1O [CURCUMIN]
MIC (Staphylococcus aureus [12]): 100 µg/mL

Oc1cccc2cccnc12 [OXYQUINOLINE]
MIC (Neisseria gonorrhoeae [10]): 0.08 µM (≈ 0.0116 µg/mL)

CC/C(=C(\c1ccc(O)cc1)c1ccc(OCCN(C)C)cc1)c1ccccc1 [AFIMOXIFENE]
MIC (Pseudomonas aeruginosa [13]): 16 µg/mL (≈ 41.3 µM)

Nc1c2ccccc2nc2ccccc12 [AMINACRINE]
MIC (Klebsiella pneumoniae [14]): 8 µg/mL (≈ 41.2 µM)

CC1=NN(c2ccc(C)c(C)c2)C(=O)/C1=N\Nc1cccc(-c2cccc(C(=O)O)c2)c1O [ELTROMBOPAG]
MIC (Staphylococcus aureus [15]): 2 µg/mL (≈ 4.52 µM)
MIC (Staphylococcus aureus [16]): 2 µg/mL

CN[C@H]1CC[C@@H](c2ccc(Cl)c(Cl)c2)c2ccccc21 [SERTRALINE]
MIC (Helicobacter pylori [17]): 32 µg/mL (≈ 104 µM)

N[C@@H](CC(=O)N1CCn2c(nnc2C(F)(F)F)C1)Cc1cc(F)c(F)cc1F [SITAGLIPTIN]
MIC (Pseudomonas aeruginosa [18]): 16 µg/mL (≈ 39.3 µM)

Oc1c(Cl)cc(Cl)c2cccnc12 [CHLOROXINE]
MIC (Neisseria gonorrhoeae [10]): 0.28 µM (≈ 0.0599 µg/mL)

CN(C)Cc1ccc2c(Cl)cc(Cl)c(O)c2n1
MIC (Neisseria gonorrhoeae [19]): 0.31 µg/mL (≈ 1.14 µM)

CC/C(=C(\c1ccccc1)c1ccc(OCCNC)cc1)c1ccccc1 [N-DESMETHYLTAMOXIFEN]
MIC (Pseudomonas aeruginosa [13]): 16 µg/mL (≈ 44.8 µM)

CC[C@H](c1ccc(O)cc1)[C@@H](CC)c1ccc(O)cc1 [HEXESTROL]
MIC (Staphylococcus aureus [20]): 16 µg/mL (≈ 59.2 µM)

CCOC(=O)C1=C(C)NC(C)=C(C(=O)OC)C1c1cccc([N+](=O)[O-])c1 (stereo not given) [NITRENDIPINE]
MIC (Helicobacter pylori [21]): 4 µg/mL (≈ 11.1 µM)

Oc1c(I)cc(I)c2cccnc12 [IODOQUINOL]
MIC (Neisseria gonorrhoeae [10]): 0.1 µM (≈ 0.0397 µg/mL)

CN[C@@H]1[C@@H](O[C@H]2O[C@H](CO)[C@@H](N)[C@H](O)[C@H]2O)O[C@H]2C[C@@H](N)[C@@H](O[C@H]3[C@H](O)[C@@H](O)[C@H](N)C[C@@H]3N)O[C@@H]2[C@@H]1O
MIC (Pseudomonas aeruginosa [22]): 32 µg/mL (≈ 59.3 µM)

CN(C)C(=S)SSC(=S)N(C)C [THIRAM]
MIC90 (Staphylococcus aureus [23]): 4 µg/mL

CO[C@@]12[C@H](COC(N)=O)C3=C(C(=O)C(C)=C(N)C3=O)N1C[C@@H]1N[C@@H]12 [MITOMYCIN]
MIC (Acinetobacter baumannii): 20 µg/mL (≈ 59.8 µM)

O=C(O)C(=O)CBr [BROMOPYRUVATE]
MIC (Helicobacter pylori [24]): 32 µg/mL (≈ 192 µM)

Cc1ccc(-c2cc(C(F)(F)F)nn2-c2ccc(S(N)(=O)=O)cc2)cc1 [CELECOXIB]
MIC (Staphylococcus aureus [25]): 128 µg/mL (≈ 336 µM)
MIC (Staphylococcus aureus [26]): 32 µg/mL

O=C(Nc1cc(Cl)cc(Cl)c1O)c1c(O)c(Cl)cc(Cl)c1Cl [OXYCLOZANIDE]
MIC (Staphylococcus aureus [27]): 0.125 µg/mL

COCCOC(=O)C1=C(C)NC(C)=C(C(=O)OC(C)C)C1c1cccc([N+](=O)[O-])c1 (stereo not given) [NIMODIPINE]
MIC (Helicobacter pylori [21]): 4 µg/mL (≈ 9.56 µM)

From ChEMBL document CHEMBL6071161, “Drug repurposing against antibiotic resistant bacterial pathogens” (2024)
